Source: US20110243957A1, “MATERIALS AND METHODS FOR PREVENTING OR TREATING NEURODEGENERATIVE CONDITIONS ASSOCIATED WITH ABETA PEPTIDE ACCUMULATION” (University of South Florida, priority 2008, published 2011)
Entries after “also recorded” stand apart in the source; their conditions may differ. Where two headings read alike, the source gives them in different places.

Legend:
[1] = system: embryonic rat cortical cells; experiment: Aβ toxicity assay, cell viability by MTT; format: cell-based; details: 5 μM Aβ + 10 μM inhibitor, 48 h; Aβ alone 73% (GW5074 experiment), 70% (ZM336372 experiment)
[2] = system: embryonic rat cortical cells; experiment: Aβ toxicity assay, calcein-AM/propidium iodide staining; format: cell-based; details: 5 μM Aβ + 10 μM GW5074, 48 h
pNFκB/p65 (Ser276) = experiment: Aβ-dependent NFκB/p65 phosphorylation at serine 276 in cortical cells, Western blot; format: cell-based, rat; details: 10 μM GW5074 + 5 μM Aβ, 48 h, in comparison to Aβ treated cells
ppErk1/2 = experiment: ppERK levels in cortex of mice, Western blot; format: in vivo
Protocol: FIGS. 4A-4C. […] After this time mice were sacrificed and the levels of pcRaf-1[Ser338] and pERK1/2 were analyzed by Western blot as described in Experimental Procedures. […] (n=5) (FIG. 4B) in the cortex than untreated Tg mice (n=4). The differences were significant for ppERKs, *P=0.016 and pcRaf-1[Ser338], *P=0.018. (FIG. 4C) Phosphorylation of cRaf-1 at Ser 259 and Ser 338. […] NT, wild-type age-matched control littermates.
(§1) Western blotting. […] (1:100) (GenScript Corporation, NJ, USA).

pcRaf-1[Ser338] = pcRaf-1[Ser338] levels in cortex of mice, Western blot; format: in vivo; details: wild type NT mice
pNF-κB[Ser276] = pNF-κB[Ser276] levels in cortex of mice, Western blot; format: in vivo; details: for levels of pNF-κB[Ser276] vs control Tg mice: cortex, 20 mg/kg/day, four months
From the text: (§2) FIGS. 5A-5E. […] NT, wild type age-matched control littermates.
as §1

Cox-2 = Cox-2 levels in cortex of mice, Western blot; format: in vivo; details: for levels of Cox-2 vs control Tg mice: cortex, 20 mg/kg/day, four months
iNOS = iNOS levels in cortex of mice, Western blot; format: in vivo
From the text: as §2, §1

Aβ40 = experiment: Total Aβ40 levels in cortex, ELISA; format: in vivo; details: Tg mice, Study 2 (4 mo. treatment), ns vs Tg
Aβ42 = experiment: Total Aβ42 levels in cortex, ELISA; format: in vivo; details: Tg mice, ns vs Tg
Protocol: Determination of Aβ levels. The levels of Aβ1-40 and Aβ1-42 were quantified in the brain tissues by ELISA.
Total Aβ levels. Brain tissues were prepared by sonication of the samples in 5 M guanidine HCl, and 50 mM Tris-HCl. pH 8.0. After sonication, samples were incubated for 3 h at room temperature and centrifuged at 16,000×g for 20 min at 4° C. The supernatants were stored at −80° C. For analysis, the supernatants were diluted using PBS with 5% BSA and 0.03% Tween-20 supplemented with 1× protease inhibitor cocktail (Roche, USA) and further used to determine total Aβ levels using a commercial ELISA kit (Invitrogen, Carlsbad, Calif., USA), according to the manufacturer's recommendations.
Aβ levels represent the concentration of amyloid peptides in the cortex (A, C) and hippocampus (B, D) of the mice expressed as picogram by milligram (pg/mg) of brain tissue. Total peptide levels correspond to the levels found in the supernatant of cortical tissues homogenized in 5 M guanidinium chloride. Soluble Aβ levels correspond to the levels found in the supernatant of hippocampal tissues of the mice homogenized in the Triton-soluble fractions. ns, Not significant (P>0.05).

p-CREB[Ser 133] = experiment: CREB phosphorylated at Ser 133 in cortex, Western blot; format: in vivo; details: Tg mice, four months treatment, vs control Tg mice
From the text: as §1

APPswe (Tg) and NT mice [3] = format: in vivo; details: during treatment (20 mg/kg/day)
From the text: RAWM. For the RAWM task of spatial working memory (Arendash et al. (2001b); Arendash et al. (2007); Ethell et al. (2006)), an aluminum insert was placed into a 100 cm circular pool to create six radially distributed swim arms emanating from a central circular swim area (Arendash et al. (2001a); Ethell et al. (2006)). An assortment of 2-D and 3-D visual cues surrounded the pool. The number of errors prior to locating which one of the six swim arms contained a submerged escape platform (9 cm diameter) was determined in each of five trials every day. There was a 20-min time delay between the 4th trial (T4; final acquisition trial) and 5th trial (T5; memory retention trial). […] During each trial (60 s maximum), the mouse was returned to that trial's start arm upon swimming into an incorrect arm and the number of seconds required to locate the submerged platform was recorded. […]
For statistical analysis of RAWM data, the 8 days of pre-treatment testing (four 2-day blocks) or the 9 days of during-treatment testing (three 3-day blocks) were evaluated for individual blocks, as well as over all blocks, using one-way ANOVAs. […] One-way ANOVAs were employed for each of the four behavioral measures analyzed, followed by post hoc Fisher's LSD test to determine group differences. […]

APPswe (Tg) and NT mice [4] = experiment: Cognitive interference task of working memory; format: in vivo
From the text: Interference test details. Cognitive Interference Task. This task involves two radial arm water maze set-ups in two different rooms, and different sets of visual cues. The task requires animals to remember a set of visual cues, so that following interference with a different set of cues, the initial set of cues can be recalled to successfully solve the radial arm water maze task. A set of […] behavioral measures were examined. Behavioral measures are: A1-A3 (Composite three-trial recall score from first 3 trials performed in RAWM “A”), “B” (proactive interference measure attained from a single trial in RAWM “B”), A4 (retroactive interference measure attained during a single trial in RAWM “A”), and “A5” (delayed-recall measure attained from a single trial in RAWM “A” following a 20 min delay between A4 and A5). As with the standard RAWM task, this interference task involves the platform location being changed daily to a different arm for both of the RAWM set-ups utilized, and different start arms for each day of testing for both RAWM set-ups. For A1 and B trials, the animal is initially allowed one minute to find the platform on their own before they are guided to the platform. Then the actual trial is performed in each case. As with the standard RAWM task, animals were given 60-s to find the escape platform, with the number of errors and escape latency recorded for each trial.
Cognitive interference task. This task involves two RAWM setups in two different rooms, and three different sets of visual cues. The task requires animals to remember a set of visual cues, so that following interference with a different set of cues, the initial set of cues can be recalled to successfully solve the RAWM task. A set of four behavioral measures was examined through six successive daily trials. Behavioral measures were A1-A3 (Composite three-trial recall score from first three trials performed in RAWM “A”), “B” (proactive interference measure attained from a single trial in RAWM “B”), A4 (retroactive interference measure attained during a single trial in RAWM “A”), and “A5” (delayed-recall measure attained from a single trial in RAWM “A” following a 20 min delay between A4 and A5). As with the standard RAWM task, this interference task involves the platform location being changed daily to a different arm for both of the RAWM setups utilized, and different start arms for each day of testing for both RAWM setups. For A1 and B trials, the animal is initially allowed 1 min to find the platform on its own before being guided to the platform. Then the actual trial is performed in each case. Also, between each trial, animals were placed into a Y-maze apparatus for 30 seconds as an inter-trial interfering experience. As with the standard RAWM task, animals were given 60 s to find the escape platform for each trial, with the number of errors and escape latency recorded for each trial.
For statistical analysis of RAWM data, the 8 days of pre-treatment testing (four 2-day blocks) or the 9 days of during-treatment testing (three 3-day blocks) were evaluated for individual blocks, as well as over all blocks, using one-way ANOVAs. Thereafter, post hoc pair-by-pair differences between groups were resolved with the Fisher LSD (least significant difference) test.

PKA [5] = details: cited from earlier work
[6] = Kane et al. (2006); cited from earlier work
IκBα = IκBα levels in cortex of mice, Western blot; details: two months treatment
PKA [7] = experiment: PKA kinase activity ELISA in brain extracts of treated mice; details: Tg mice, four months treatment
[8] = wild type mice (data not shown)

Question: With `O=C1Nc2ccc(I)cc2/C1=C/c1cc(Br)c(O)c(Br)c1` [GW5074, 5-iodo-3-[(3,5-dibromo-4-hydroxyphenyl)methy-lene]-2-indolinone] as the compound, how does the “cell survival, % of control levels (MTT)” value [1] read?
Answer: Its value is 93%.

Question: What about the “number of PI stained cells after Aβ exposure” value [2] of the same compound?
Answer: The value was “decreased dramatically”.

Question: What about the “NFκB/p65 phosphorylation at serine 276” value (pNFκB/p65 (Ser276)) of the same compound?
Answer: Its value is “nine-fold decrease”.

Question: Which results are given for `CNC(=O)c1cc(Oc2ccc(NC(=O)Nc3ccc(Cl)c(C(F)(F)F)c3)cc2)ccn1` [Sorafenib, 4-(4-phenoxy)-N2-methylpyridine-2 carboxamide 4-methylbenzenesulfonate]?
Answer: decrease in levels of ppERK compared to control Tg mice (ppErk1/2; Tg mice, cortex, 20 mg/kg gavage, two months): 29%; ERK phosphorylation vs untreated NT mice (ppErk1/2; wild type NT mice): No changes; cRaf-1 phosphorylation vs untreated NT mice (pcRaf-1[Ser338]): No changes; levels of pNF-κB[Ser276] vs control Tg mice (pNF-κB[Ser276]): significantly lower levels; levels of pNF-κB[Ser276] vs control Tg mice (pNF-κB[Ser276]; listed as sorafenib): significantly reduced; pNF-κB[Ser276] levels vs untreated wild type mice (pNF-κB[Ser276]; [8]): No differences; levels of Cox-2 vs control Tg mice (Cox-2): lower levels; levels of Cox-2 vs control Tg mice (Cox-2; listed as sorafenib): substantially lower levels; Cox-2 levels vs untreated wild type mice (Cox-2; [8]): No differences; lower expression of iNOS than control Tg mice (iNOS; Tg mice, cortex, 20 mg/kg/day, four months): 81%; iNOS levels vs untreated wild type mice (iNOS; [8]): No differences; Aβ40 total levels (Aβ40): 36,140 ± 9.281 ns, P = 0.5193 pg/mg; Aβ42 total levels (Aβ42; Study 1 (2 mo. treatment)): 22,570 ± 5,946 ns, P = 0.4568 pg/mg; Aβ42 total levels (Aβ42; Study 2 (4 mo. treatment)): 71,980 ± 26,210 ns, P = 0.9914 pg/mg; CREB phosphorylation at Ser 133 in cortex (p-CREB[Ser 133]): significantly increased; also recorded: significantly higher; T5 errors over all blocks of RAWM testing (APPswe (Tg) and NT mice [3]; NT mice, NT vehicle 0.9±0.4): 1.1±0.2 errors; T5 errors over all blocks of RAWM testing (APPswe (Tg) and NT mice [3]; Tg mice, Tg vehicle 1.9±0.3): 1.9±0.2 errors; working memory in interference test vs vehicle-treated APPswe mice (APPswe (Tg) and NT mice [4]; APPswe mice, 2 months treatment, p<0.01): significant improvement in working memory; performance in any measure of cognitive interference testing, NT+sorafenib vs NT (APPswe (Tg) and NT mice [4]; NT mice): no differences in performance; 20-min delayed recall (A5), beneficial effects (APPswe (Tg) and NT mice [4]; Tg mice, final day of testing): not evident; three-trial recall (A1-A3) (APPswe (Tg) and NT mice [4]; Tg mice, final day of testing, errors and escape latency): performed identically to NT mice; also recorded: comparable to NT controls; three-trial recall (A1-A3) (APPswe (Tg) and NT mice [4]; Tg mice, first day of interference testing, compared to NT mice): impaired; 20-min delayed recall (A5) (APPswe (Tg) and NT mice [4]; Tg mice, first day of testing): significantly better and no different from NT mice; also recorded: much better delayed recall performance; proactive interference (B) (APPswe (Tg) and NT mice [4]; Tg mice, first day of testing): relatively high escape latency; proactive interference (B) (APPswe (Tg) and NT mice [4]; Tg mice, last day of testing): performed significantly better than Tg controls and identically to NT mice; also recorded: performed substantially better than Tg controls; retroactive interference (A4) (APPswe (Tg) and NT mice [4]; first and last day of testing): no effect of genotype or sorafenib treatment; IC50 (PKA [5]): > 10 µM; blood-brain barrier [6]: crosses the blood-brain barrier; higher levels of IκBα protein expression compared to control Tg mice (IκBα): 117%; PKA activity in cortex (PKA [7]): restored PKA activity in Tg mice to values similar to those observed in NT mice; PKA activity in cortex (PKA [7]; listed as sorafenib): comparable to NT mice

Question: With `Cc1ccc(NC(=O)c2cccc(N(C)C)c2)cc1NC(=O)c1ccc(O)cc1` [ZM336372, N-[5-(dimethyl-aminobenzamide)-2-methylphenyl]-4-hydroxybenzamide] as the compound, how does the “cell survival, % of control levels (MTT)” value [1] read?
Answer: The value was 86%.
